Legend:
Test in all cases: relative viability (nuclei count vs DMSO), 5 days (fraction); higher = more cells survive
TGX 221 + Palbociclib = compound: CC1=CN2C(=O)C=C(N=C2C(=C1)C(C)NC3=CC=CC=C3)N4CCOCC4 [TGX 221] + CC(=O)c1c(C)c2cnc(Nc3ccc(N4CCNCC4)cn3)nc2n(C2CCCC2)c1=O [Palbociclib] (partner 0.5 µM)
Outline: (§1)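 The day after seeding in 1536-well plates, lung cancer cell lines were treated by pin tool with a single drug, or with a fixed anchor-drug dose together with five library-drug doses (not always all listed) in √10 steps. After 5 days, a combined fix-and-stain solution (final 0.05% Triton X-100, 1% formaldehyde, 1 ug/ml Hoechst) was added. Nuclei counted on 4× images gave relative viability as treated counts over vehicle counts, reported as the median of duplicate plates.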

TGX 221 + Tozasertib = compound: CC1=CN2C(=O)C=C(N=C2C(=C1)C(C)NC3=CC=CC=C3)N4CCOCC4 [TGX 221] + Cc1cc(Nc2cc(N3CCN(C)CC3)nc(Sc3ccc(NC(=O)C4CC4)cc3)n2)n[nH]1 [Tozasertib] (partner 0.1 µM)
Outline: as §1

TGX 221 + Linsitinib = compound: CC1=CN2C(=O)C=C(N=C2C(=C1)C(C)NC3=CC=CC=C3)N4CCOCC4 [TGX 221] + C[C@]1(O)C[C@@H](c2nc(-c3ccc4ccc(-c5ccccc5)nc4c3)c3c(N)nccn32)C1 [Linsitinib] (partner 1 µM)
Outline: as §1

[1] = compound: C1=CC=C(C(=C1)C2=CC=C(C=C2)C3=CSC4=C3C(=C(C(=O)N4)C#N)O)O + NC(=O)Nc1cc(-c2cccc(F)c2)sc1C(=O)N[C@H]1CCCNC1 [AZD7762] (partner 0.2 µM)
Outline: as §1

SK-LU-1
relative viability (TGX 221 + Palbociclib; first compound 0.08 µM): 0.342 | relative viability (TGX 221 + Palbociclib; first compound 0.253 µM): 0.359 | relative viability (TGX 221 + Palbociclib; first compound 0.8 µM): 0.357 | relative viability (TGX 221 + Palbociclib; first compound 2.53 µM): 0.379 | relative viability (TGX 221 + Palbociclib; first compound 8 µM): 0.317 | relative viability (TGX 221 + Tozasertib; first compound 0.08 µM): 0.346 | relative viability (TGX 221 + Tozasertib; first compound 0.253 µM): 0.356 | relative viability (TGX 221 + Tozasertib; first compound 0.8 µM): 0.321 | relative viability (TGX 221 + Tozasertib; first compound 2.53 µM): 0.343 | relative viability (TGX 221 + Tozasertib; first compound 8 µM): 0.308 | relative viability (TGX 221 + Linsitinib; first compound 0.08 µM): 0.96 | relative viability (TGX 221 + Linsitinib; first compound 0.253 µM): 0.904 | relative viability (TGX 221 + Linsitinib; first compound 0.8 µM): 0.922 | relative viability (TGX 221 + Linsitinib; first compound 2.53 µM): 1.06 | relative viability (TGX 221 + Linsitinib; first compound 8 µM): 0.858

NCI-H1793
relative viability (TGX 221 + Palbociclib; first compound 0.08 µM): 0.282 | relative viability (TGX 221 + Palbociclib; first compound 0.253 µM): 0.277 | relative viability (TGX 221 + Palbociclib; first compound 0.8 µM): 0.271 | relative viability (TGX 221 + Palbociclib; first compound 2.53 µM): 0.273 | relative viability (TGX 221 + Palbociclib; first compound 8 µM): 0.223 | relative viability ([1]; first compound 0.08 µM): 0.401 | relative viability ([1]; first compound 0.253 µM): 0.411 | relative viability ([1]; first compound 0.8 µM): 0.473 | relative viability ([1]; first compound 2.53 µM): 0.53 | relative viability ([1]; first compound 8 µM): 0.432 | relative viability (TGX 221 + Tozasertib; first compound 0.08 µM): 0.311 | relative viability (TGX 221 + Tozasertib; first compound 0.253 µM): 0.239 | relative viability (TGX 221 + Tozasertib; first compound 0.8 µM): 0.244 | relative viability (TGX 221 + Tozasertib; first compound 2.53 µM): 0.16 | relative viability (TGX 221 + Tozasertib; first compound 8 µM): 0.166 | relative viability (TGX 221 + Linsitinib; first compound 0.08 µM): 0.768 | relative viability (TGX 221 + Linsitinib; first compound 0.253 µM): 0.616 | relative viability (TGX 221 + Linsitinib; first compound 0.8 µM): 0.531 | relative viability (TGX 221 + Linsitinib; first compound 2.53 µM): 0.467 | relative viability (TGX 221 + Linsitinib; first compound 8 µM): 0.474

NCI-H647
relative viability (TGX 221 + Palbociclib; first compound 0.08 µM): 0.296 | relative viability (TGX 221 + Palbociclib; first compound 0.253 µM): 0.297 | relative viability (TGX 221 + Palbociclib; first compound 0.8 µM): 0.283 | relative viability (TGX 221 + Palbociclib; first compound 2.53 µM): 0.232 | relative viability (TGX 221 + Palbociclib; first compound 8 µM): 0.275 | relative viability ([1]; first compound 0.08 µM): 0.294 | relative viability ([1]; first compound 0.253 µM): 0.337 | relative viability ([1]; first compound 0.8 µM): 0.276 | relative viability ([1]; first compound 2.53 µM): 0.39 | relative viability ([1]; first compound 8 µM): 0.301 | relative viability (TGX 221 + Tozasertib; first compound 0.08 µM): 0.284 | relative viability (TGX 221 + Tozasertib; first compound 0.253 µM): 0.219 | relative viability (TGX 221 + Tozasertib; first compound 0.8 µM): 0.312 | relative viability (TGX 221 + Tozasertib; first compound 2.53 µM): 0.285 | relative viability (TGX 221 + Tozasertib; first compound 8 µM): 0.122 | relative viability (TGX 221 + Linsitinib; first compound 0.08 µM): 0.915 | relative viability (TGX 221 + Linsitinib; first compound 0.253 µM): 0.948 | relative viability (TGX 221 + Linsitinib; first compound 0.8 µM): 1 | relative viability (TGX 221 + Linsitinib; first compound 2.53 µM): 0.749 | relative viability (TGX 221 + Linsitinib; first compound 8 µM): 0.611

NCI-H1975
relative viability (TGX 221 + Palbociclib; first compound 0.08 µM): 0.532 | relative viability (TGX 221 + Palbociclib; first compound 0.253 µM): 0.558 | relative viability (TGX 221 + Palbociclib; first compound 0.8 µM): 0.629 | relative viability (TGX 221 + Palbociclib; first compound 2.53 µM): 0.452 | relative viability (TGX 221 + Palbociclib; first compound 8 µM): 0.526 | relative viability ([1]; first compound 0.08 µM): 0.665 | relative viability ([1]; first compound 0.253 µM): 0.746 | relative viability ([1]; first compound 0.8 µM): 0.606 | relative viability ([1]; first compound 2.53 µM): 0.736 | relative viability ([1]; first compound 8 µM): 0.633 | relative viability (TGX 221 + Tozasertib; first compound 0.08 µM): 0.759 | relative viability (TGX 221 + Tozasertib; first compound 0.253 µM): 0.685 | relative viability (TGX 221 + Tozasertib; first compound 0.8 µM): 0.761 | relative viability (TGX 221 + Tozasertib; first compound 2.53 µM): 0.569 | relative viability (TGX 221 + Tozasertib; first compound 8 µM): 0.382 | relative viability (TGX 221 + Linsitinib; first compound 0.08 µM): 0.843 | relative viability (TGX 221 + Linsitinib; first compound 0.253 µM): 0.778 | relative viability (TGX 221 + Linsitinib; first compound 0.8 µM): 0.902 | relative viability (TGX 221 + Linsitinib; first compound 2.53 µM): 0.943 | relative viability (TGX 221 + Linsitinib; first compound 8 µM): 0.697

NCI-H1648
relative viability (TGX 221 + Palbociclib; first compound 0.253 µM): 0.247 | relative viability (TGX 221 + Palbociclib; first compound 0.8 µM): 0.231 | relative viability (TGX 221 + Palbociclib; first compound 2.53 µM): 0.25 | relative viability (TGX 221 + Palbociclib; first compound 8 µM): 0.273 | relative viability ([1]; first compound 0.253 µM): 0.676 | relative viability ([1]; first compound 0.8 µM): 0.734 | relative viability ([1]; first compound 2.53 µM): 0.689 | relative viability ([1]; first compound 8 µM): 0.608 | relative viability (TGX 221 + Tozasertib; first compound 0.08 µM): 0.422 | relative viability (TGX 221 + Tozasertib; first compound 0.8 µM): 0.563 | relative viability (TGX 221 + Tozasertib; first compound 2.53 µM): 0.406 | relative viability (TGX 221 + Tozasertib; first compound 8 µM): 0.45

NCI-H2126
relative viability (TGX 221 + Palbociclib; first compound 0.08 µM): 0.348 | relative viability (TGX 221 + Palbociclib; first compound 0.253 µM): 0.341 | relative viability (TGX 221 + Palbociclib; first compound 0.8 µM): 0.342 | relative viability (TGX 221 + Palbociclib; first compound 2.53 µM): 0.354 | relative viability (TGX 221 + Palbociclib; first compound 8 µM): 0.308 | relative viability ([1]; first compound 0.08 µM): 1.01 | relative viability ([1]; first compound 0.253 µM): 1.09 | relative viability ([1]; first compound 0.8 µM): 0.973 | relative viability ([1]; first compound 2.53 µM): 1.1 | relative viability ([1]; first compound 8 µM): 0.763 | relative viability (TGX 221 + Tozasertib; first compound 0.08 µM): 0.826 | relative viability (TGX 221 + Tozasertib; first compound 0.253 µM): 0.886 | relative viability (TGX 221 + Tozasertib; first compound 0.8 µM): 0.797 | relative viability (TGX 221 + Tozasertib; first compound 2.53 µM): 0.768 | relative viability (TGX 221 + Tozasertib; first compound 8 µM): 0.756 | relative viability (TGX 221 + Linsitinib; first compound 0.08 µM): 0.632 | relative viability (TGX 221 + Linsitinib; first compound 0.253 µM): 0.604 | relative viability (TGX 221 + Linsitinib; first compound 0.8 µM): 0.579 | relative viability (TGX 221 + Linsitinib; first compound 2.53 µM): 0.576 | relative viability (TGX 221 + Linsitinib; first compound 8 µM): 0.593

EBC-1
relative viability (TGX 221 + Linsitinib; first compound 0.08 µM): 0.911 | relative viability (TGX 221 + Linsitinib; first compound 0.253 µM): 0.726 | relative viability (TGX 221 + Linsitinib; first compound 0.8 µM): 0.822 | relative viability (TGX 221 + Linsitinib; first compound 2.53 µM): 0.687 | relative viability (TGX 221 + Linsitinib; first compound 8 µM): 0.702

NCI-H2228
relative viability (TGX 221 + Palbociclib; first compound 0.08 µM): 0.692 | relative viability (TGX 221 + Palbociclib; first compound 0.253 µM): 0.689 | relative viability (TGX 221 + Palbociclib; first compound 0.8 µM): 0.989 | relative viability (TGX 221 + Palbociclib; first compound 2.53 µM): 0.675 | relative viability (TGX 221 + Palbociclib; first compound 8 µM): 0.719 | relative viability (TGX 221 + Tozasertib; first compound 0.08 µM): 0.251 | relative viability (TGX 221 + Tozasertib; first compound 0.253 µM): 0.262 | relative viability (TGX 221 + Tozasertib; first compound 0.8 µM): 0.261 | relative viability (TGX 221 + Tozasertib; first compound 2.53 µM): 0.215 | relative viability (TGX 221 + Tozasertib; first compound 8 µM): 0.167 | relative viability (TGX 221 + Linsitinib; first compound 0.08 µM): 0.411 | relative viability (TGX 221 + Linsitinib; first compound 0.253 µM): 0.624 | relative viability (TGX 221 + Linsitinib; first compound 0.8 µM): 0.625 | relative viability (TGX 221 + Linsitinib; first compound 2.53 µM): 0.29 | relative viability (TGX 221 + Linsitinib; first compound 8 µM): 0.344

ChaGo-K-1
relative viability (TGX 221 + Palbociclib; first compound 0.08 µM): 0.853 | relative viability (TGX 221 + Palbociclib; first compound 0.253 µM): 0.835 | relative viability (TGX 221 + Palbociclib; first compound 0.8 µM): 0.916 | relative viability (TGX 221 + Palbociclib; first compound 2.53 µM): 0.921 | relative viability (TGX 221 + Palbociclib; first compound 8 µM): 0.935 | relative viability ([1]; first compound 0.08 µM): 0.834 | relative viability ([1]; first compound 0.253 µM): 0.936 | relative viability ([1]; first compound 0.8 µM): 0.904 | relative viability ([1]; first compound 2.53 µM): 0.92 | relative viability ([1]; first compound 8 µM): 0.838 | relative viability (TGX 221 + Tozasertib; first compound 0.08 µM): 0.22 | relative viability (TGX 221 + Tozasertib; first compound 0.253 µM): 0.202 | relative viability (TGX 221 + Tozasertib; first compound 0.8 µM): 0.216 | relative viability (TGX 221 + Tozasertib; first compound 2.53 µM): 0.219 | relative viability (TGX 221 + Tozasertib; first compound 8 µM): 0.191

SK-MES-1
relative viability (TGX 221 + Palbociclib; first compound 0.08 µM): 0.304 | relative viability (TGX 221 + Palbociclib; first compound 0.253 µM): 0.336 | relative viability (TGX 221 + Palbociclib; first compound 0.8 µM): 0.308 | relative viability (TGX 221 + Palbociclib; first compound 2.53 µM): 0.287 | relative viability (TGX 221 + Palbociclib; first compound 8 µM): 0.323 | relative viability (TGX 221 + Tozasertib; first compound 0.08 µM): 0.897 | relative viability (TGX 221 + Tozasertib; first compound 0.253 µM): 0.992 | relative viability (TGX 221 + Tozasertib; first compound 0.8 µM): 0.916 | relative viability (TGX 221 + Tozasertib; first compound 2.53 µM): 0.957 | relative viability (TGX 221 + Tozasertib; first compound 8 µM): 0.796 | relative viability (TGX 221 + Linsitinib; first compound 0.08 µM): 1.05 | relative viability (TGX 221 + Linsitinib; first compound 0.253 µM): 1.03 | relative viability (TGX 221 + Linsitinib; first compound 0.8 µM): 1.03 | relative viability (TGX 221 + Linsitinib; first compound 2.53 µM): 0.913 | relative viability (TGX 221 + Linsitinib; first compound 8 µM): 0.573

— the supplement of paper PMC10307832
